The text below walks through data of patent US10023565B2, “N,N′ substituted piperidinamine compounds, and preparation method and usage thereof” (Institute of Pharmacology and Toxicology Academy of …, priority 2013, dated 2018).

What all share (assay): Antitumor bioactivity evaluation, breast cancer cells (ATPlite)
(In general: ATP-based viability assays read luminescence as a measure of living cells.)

Assay [1] concerns BT/Lap^R1.0. It is filed as cell-based, human. To be noted: Homo sapiens; test sample 5 μM, 72 hours; read-out: Inhibitory Rate % BT/Lap^R1.0. The procedure:
(§1) Antitumor bioactivity evaluation of the compounds of Examples according to the method described below
(§2) Cells plating: a 100 mm culture dish with overgrown adherent cells was digested with 1 ml 0.25% trypsin (GIBCO) at 37° C. for 5 min, and the reaction was terminated with 2 ml culture medium (containing 10% FBS, GIBCO). The cells were scattered and collected, after counting, diluted to 1×10^5 cells/ml, and seeded into a 96-well plate at 50 μl/well, 5000 cells/well, excluding the peripheral circle of wells in which no cell was added, but PBS was added, 60 wells in total, and then incubated at 37° C. for 24 hours for adhering.
(§3) Addition of the compound and lapatinib: the test sample was diluted to a final concentration of 5 μM, and the culture medium with the corresponding compound solvent concentration was filled in the control well, the compound solvent concentration was kept consistent in each well, 5 parellel wells were set for each concentration, 25 μl each well, 25 μl culture medium (in combined group, 25 μl lapatinib was added till a final concentration of 1 μM) supplemented, followed by incubation at 37° C. for 72 hours.
(§4) Test after incubation at 37° C. for 72 hours: 50 μL of ATPlite kit substrate solution was added in each well, and vibrated for 3 min, followed by placing aside in darkness for 10 min, and then supernatant 100 μl/well was taken and placed on aluminescence test plate; the luminescence test plate that has been fully incubated was placed in a luminescence test instrument, to read luminescence value.
(§5) 1. Cell survival rate (%)=Experimental group RLU/control group RLU×100%. The experimental data were subjected to data analysis and processing by utilizing GraphPad software.

Assay [2] concerns BT474. It is filed as cell-based. To be noted: Homo sapiens, BT-474; test sample 5 μM, 72 hours; read-out: Inhibitory Rate % BT474. The procedure: as §1, §2, §3, §4, §5
Assay [3] concerns SK-BR3. The class given is cell-based. As to conditions: Homo sapiens, SK-BR-3; test sample 5 μM, 72 hours; read-out: Inhibitory Rate % SK-BR3. On the procedure:
as §1, §2, §3, §4, §5

The subject of assay [4] is MDA-MB-361. The class given is cell-based. As to conditions: Homo sapiens, test sample 5 μM, 72 hours, read-out: Inhibitory Rate % MDA-MB-361. The procedure:
as §1, §2, §3, §4, §5

The test system of assay [5] is SK/Lap^R1.0. It is filed as cell-based. To be noted: Homo sapiens; test sample 5 μM, 72 hours; read-out: Inhibitory Rate % SKLap^R1.0. The procedure: as §1, §2, §3, §4, §5
Assay [6] has as its system MDA-MB-453. The class given is cell-based. To be noted: Homo sapiens, test sample 5 μM, 72 hours, read-out: Inhibitory Rate % MDA-MB-453. On the procedure: as §1, §2, §3, §4, §5

Turning to `Cc1ccccc1CN(C)C1CCN(Cc2cnc(Cl)s2)CC1` [Example 21, N-methyl-N-(2-methylbenzyl)-N-{[1-(2-chlorothiazol-5-yl)methyl]piperidin-4-yl}amine], the inhibition at 5 µM in assay [1] was found to be 4%; in assay [2], 1.5%; in assay [3] it was 9.7%; in assay [4], 4.4%; in assay [5], 5.1%; in assay [6], 3.5%.

For `Cc1ccc(CN(C)C2CCN(Cc3cnc(Cl)s3)CC2)cc1` [Example 22, N-methyl-N-(4-methylbenzyl)-N-{[1-(2-chlorothiazol-5-yl)methyl]piperidin-4-yl}amine], the inhibition at 5 µM in assay [1] was determined as 16%; in assay [2] it was 14.2%; in assay [3], 26.2%; in assay [4], 10.9%; in assay [5], 8.4%; in assay [6], 29.6%.

Turning to `CN(Cc1cccc(F)c1)C1CCN(Cc2cnc(Cl)s2)CC1` [Example 23, N-methyl-N-(3-fluorobenzyl)-N-{[1-(2-chlorothiazol-5-yl)methyl]piperidin-4-yl}amine], the inhibition at 5 µM came to 5.7% in assay [1]; 2.4% in assay [2]; 4.2% in assay [3]; 3.2% in assay [4]; 1.3% in assay [5]; 4.4% in assay [6].

Turning to `CN(Cc1c(Cl)cccc1Cl)C1CCN(Cc2cnc(Cl)s2)CC1` [Example 24, N-methyl-N-(2,6-dichlorobenzyl)-N-{[1-(2-chlorothiazol-5-yl)methyl]piperidin-4-yl}amine], the inhibition at 5 µM in assay [1] is 7.1%; in assay [2], 11.1%; in assay [3], 19%; in assay [4], 10.2%; in assay [5], 8.5%; in assay [6], 21.1%.

For `CSc1ncc(CN2CCC(N(C)Cc3ccccc3C)CC2)s1` [Example 25, N-methyl-N-(2-methylbenzyl)-N-{[1-(2-methylthiothiazol-5-yl)methyl]piperidin-4-yl}amine], the inhibition at 5 µM in assay [1] was determined as 1.4%; in assay [2], 15.5%; in assay [3] it was 21.9%; in assay [4], 31.7%; in assay [5] it was 6.9%; in assay [6], 35.1%.

`CSc1ncc(CN2CCC(N(C)Cc3ccc(C)cc3)CC2)s1` [Example 26, N-methyl-N-(4-methylbenzyl)-N-{[1-(2-methylthiothiazol-5-yl)methyl]piperidin-4-yl}amine]: the inhibition at 5 µM in assay [1] was found to be 66.7%; in assay [2], 68.3%; in assay [3], 49.6%; in assay [4], 38.3%; in assay [5], 12.1%; in assay [6], 67.1%.

For the compound `CSc1ncc(CN2CCC(N(C)Cc3cccc(F)c3)CC2)s1` [Example 27, N-methyl-N-(3-fluorobenzyl)-N-{[1-(2-methylthiothiazol-5-yl)methyl]piperidin-4-yl}amine], the inhibition at 5 µM in assay [1] is 19.8%; in assay [2] it was 26.3%; in assay [3], 19.5%; in assay [4] it was 31.7%; in assay [5], 2.1%; in assay [6], 44.2%.

With `CSc1ncc(CN2CCC(N(C)Cc3cccc(Cl)c3)CC2)s1` [Example 28, N-methyl-N-(3-chlorobenzyl)-N-{1-[(2-methylthiothiazol-5-yl)methyl]piperidin-4-yl}amine], the inhibition at 5 µM is 36.1% in assay [1]; 44.9% in assay [2]; 26.7% in assay [3]; 31.1% in assay [4]; 7.3% in assay [5]; 62.3% in assay [6].

As for `CSc1ncc(CN2CCC(N(C)Cc3ccc(F)cc3)CC2)s1` [Example 29, N-methyl-N-(4-fluorobenzyl)-N-{1-[(2-methylthiothiazol-5-yl)methyl]piperidin-4-yl}amine], the inhibition at 5 µM was determined as 50.5% in assay [1]; 54.4% in assay [2]; 40.9% in assay [3]; 32.8% in assay [4]; 11.7% in assay [5]; 67.4% in assay [6].

For `CSc1ncc(CN2CCC(N(C)Cc3ccc(Cl)c(Cl)c3)CC2)s1` [Example 30, N-methyl-N-(3,4-dichlorobenzyl)-N-{1-[(2-methylthiothiazol-5-yl)methyl]piperidin-4-yl}amine], the inhibition at 5 µM stood at 67.1% in assay [1]; 62.6% in assay [2]; 42.4% in assay [3]; 42.1% in assay [4]; 10.1% in assay [5]; 69.9% in assay [6].

Consider `CSc1ncc(CN2CCC(N(C)Cc3c(F)cccc3Cl)CC2)s1` [Example 31, N-methyl-N-(2-fluoro-6-chlorobenzyl)-N-{1-[(2-methylthiothiazol-5-yl)methyl]piperidin-4-yl}amine], for which the inhibition at 5 µM in assay [1] was found to be 59.9%; in assay [2], 49.5%; in assay [3] it was 9.2%; in assay [4] it was 47.2%; in assay [5], 4.5%; in assay [6], 65.3%.

For the compound `CSc1ncc(CN2CCC(N(C)Cc3c(Cl)cccc3Cl)CC2)s1` [Example 32, N-methyl-N-(2,6-dichlorobenzyl)-N-{1-[(2-methylthiothiazol-5-yl)methyl]piperidin-4-yl}amine], the inhibition at 5 µM came to 54.9% in assay [1]; 54.9% in assay [2]; 24.3% in assay [3]; 45.2% in assay [4]; 26.8% in assay [5]; 63.7% in assay [6].

Consider `CSc1ncc(CN2CCC(N(C)Cc3ccc(Cl)cc3Cl)CC2)s1` [Example 33, N-methyl-N-(2,4-dichlorobenzyl)-N-{1-[(2-methylthiothiazol-5-yl)methyl]piperidin-4-yl}amine], for which the inhibition at 5 µM came to 66.3% in assay [1]; 70% in assay [2]; 37.8% in assay [3]; 36.3% in assay [4]; 40.4% in assay [5]; 72.4% in assay [6].

Regarding `CSc1ncc(CN2CCC(N(C)Cc3cc(Cl)ccc3Cl)CC2)s1` [Example 34, N-methyl-N-(2,5-dichlorobenzyl)-N-{1-[(2-methylthiothiazol-5-yl)methyl]piperidin-4-yl}amine], the inhibition at 5 µM in assay [1] came out at 34.4%; in assay [2], 42.3%; in assay [3], 23.3%; in assay [4], 25.4%; in assay [5], 11.4%; in assay [6], 59.4%.

In the case of `CSc1nccc(N2CCC(N(C)Cc3ccc(Cl)c(Cl)c3)CC2)n1` [Example 38, N-methyl-N-(3,4-dichlorobenzyl)-N-[1-(2-methylthiopyrimidin-4-yl)piperidin-4-yl]amine], the inhibition at 5 µM in assay [1] is 29.9%; in assay [2] it was 39.5%; in assay [3], 30.1%; in assay [4], 29.5%; in assay [5], 12.9%; in assay [6], 60%.
